This is an account of results in US20200054058A1, “Sweetness and Taste Improvement of Steviol Glycoside and Mogroside Sweeteners with Dihydrochalcones” (The Coca-Cola Company, priority 2017, published 2020).

Where two headings read alike, the source gives them in different places. Bounds are passed on as bounds.

Assay [1] concerns panelists. Put plainly: Sensory tasting of mock beverages with Reb-J, Reb-N, Reb-O, Reb-M with and without CC-00800 against sucrose references (Example 6). The assay is classed as in vivo, human. The settings on record: for enhancement of overall sweetness by hesperitin dihydrochalcone: 10 ppm hesperitin dihydrochalcone added to the steviol glycoside beverage, all panelists; for sweetness and bitterness rank among Reb-J, Reb-N, Reb-O, Reb-M: mock beverages without hesperitin dihydrochalcone. As for the experimental part:
Steviol glycosides, namely Reb-J, Reb-N, Reb-M, Reb-O with 95% purity were purchased from commercial sources.
A 6% stock solution of CC-00800 (hesperitin dihydrochalcone, “HDC”) was made in propylene glycol (PG) food grade and used in subsequent experiments.
Acidified mock beverages (100 grams) were made using the following ingredients (in grams) in order:
All ingredients were dissolved in carbon-filtered water and the resulting beverage was filled in 300 ml glass bottles and immediately refrigerated (4° C.). Beverages were bench tasted when cold.
Four experienced panelists bench tasted the beverages blindly. Each panelist was given warm bottled water and unsalted crackers to eat and rinse the palate between samples. A maximum of 3 samples was tasted at each session to avoid fatigue.
The first session consisted of tasting beverages without hesperitin dihydrochalcone.
The second session consisted of tasting the beverages with hesperitin dihydrochalcone added (10 ppm). All panelists agreed that hesperitin dihydrochalcone enhanced the overall sweetness for about 1 Brix for Reb-J, Reb-O, and Reb-N, while Reb-M was enhanced with about 2.5 Brix.

The test system of assay [2] is panelists. Put plainly: Taste evaluation of NHDC with rebaudioside M in acidic water against sucrose solutions (Example 2). Format: in vivo, human. The settings on record: both panelists. The source says: First, the panelists assessed the sweetness of 5 ppm of NHDC in acidic water against 1.5% sucrose solution in acidic water.
Next, panelists compared the sweetness profile of (i) a sample containing 150 ppm rebaudioside M and (ii) a sample containing 5 ppm NHDC and 150 rebaudioside M to the 6%, 8%, and 10% sucrose solutions.

For assay [3], the system named is panelist. Put plainly: Taste evaluation of phloretin with rebaudioside M in acidic water against sucrose solutions (Example 1). Format: in vivo, human. The settings on record: one panelist. The source says: First, the panelist assessed the sweetness of 40 ppm of phloretin in acidic water against a 1.5% sucrose solution in acidic water. 40 ppm of phloretin was reported to have a sweetness less than the sweetness of the 1.5% sucrose solution.
Next, the panelist compared the sweetness profile of (i) the sample containing 150 ppm rebaudioside M in acidic water and (ii) the sample containing 40 ppm phloretin and 150 ppm rebaudioside M in acidic water to the 5%, 7%, 8%, 9%, and 10% sucrose solutions.

Assay [4] has as its system panelists. Format: in vivo, human. As to conditions: 250 ppm Rebaudioside M in acidic water; for sweetness in sucrose equivalents: slightly less sweet.
Assay [5] relates to panelists. Put plainly: Bench tasting of acidified mock beverages, CC-00800 + Reb-M (Example 5). The assay is classed as in vivo, human. The settings on record: 472 ppm Reb-M, control mock beverage (Bev. #7); five panelists. As for the experimental part:
Rebaudioside M was acquired from Pure Circle (86% Reb-M, 9% Reb-D, 0.8% Reb-A, plus other steviol glycosides in minor amount).
A 6% stock solution of Hesperetin Dihydrochalcone (CC-00800) was made in propylene glycol (PG) food grade and used in subsequent experiments.
Acidified mock beverages (300 grams) were made using the following ingredients (in grams) in order:
All ingredients were dissolved in carbon-filtered water and the resulting beverage was filled in 300 ml glass bottles and immediately refrigerated (4° C.). Beverages were bench tasted next morning.
Five experienced panelists bench tasted the beverages blindly. Each panelist was given warm bottled water and unsalted crackers to eat and rinse the palate between samples. A maximum of 3 samples was tasted at each session to avoid fatigue.

Assay [6] deals with panelists. The assay is described as follows: Taste evaluation of hesperetin dihydrochalcone with rebaudioside M in acidic water against sucrose solutions (Example 3). The assay is classed as in vivo, human. As to conditions: 150 ppm rebaudioside M in acidic water; both panelists; slightly less sweet. The source says:
Panelists compared the sweetness profile of (i) a sample containing 150 ppm rebaudioside M and (ii) a sample containing 40 ppm hesperetin dihydrochalcone and 150 ppm rebaudioside M to the 4%, 6%, 8%, and 10% sucrose solutions.

The test system of assay [7] is panelists. The settings on record: 250 ppm 1,6-α-isomer of Siamenoside I in acidic water; one panelist; slightly less.
Assay [8] has as its system panelist. The settings on record: Isomer of Siamenoside I in acidic water (100 ppm, Table 4); one panelist.
Description: The panelist was asked to evaluate the sweetness of the samples against the 3%, 5%, and 8% sucrose solutions and describe the taste profiles.
The subject of assay [9] is panelists. The settings on record: 250 ppm Siamenoside I in acidic water; one panelist.
Assay [10] deals with panelists. The assay is described as follows: Taste evaluation of hesperetin dihydrochalcone with siamenoside I in acidic water against sucrose solutions (Example 4). Format: in vivo, human. The settings on record: 150 ppm siamenoside I in acidic water; both panelists; slightly less sweet.
Description: Panelists compared the sweetness profile of (i) a sample containing 150 ppm siamenoside I and (ii) a sample containing 40 ppm hesperetin dihydrochalcone and 150 ppm siamenoside I to the 4%, 6%, 8%, and 10% sucrose solutions.
Where [11] appears, read: 10 ppm hesperitin dihydrochalcone added.
The mark [12] stands for this setting: 150 ppm rebaudioside M in acidic water.

`COc1ccc(CCC(=O)c2c(O)cc(O)cc2O)cc1O` [Hesperitin dihydrochalcone, 3-(3-Hydroxy-4-methoxyphenyl)-1-(2,4,6-trihydroxyphenyl)-1-propanone]: in assay [1] (setting [11]), the “effect on bitterness and other off-notes of steviol glycoside beverages” value is “reduced significantly”; the “effect on mouth feel of steviol glycoside beverages” value is recorded as “improved”.

For `C=C1C[C@@]23CC[C@H]4[C@@](C)(CCC[C@@]4(C)C(=O)O[C@@H]4O[C@H](CO)[C@@H](O)[C@H](O[C@@H]5O[C@H](CO)[C@@H](O)[C@H](O)[C@H]5O)[C@H]4O[C@@H]4O[C@@H](C)[C@H](O)[C@@H](O[C@@H]5O[C@H](CO)[C@@H](O)[C@H](O)[C@H]5O)[C@H]4O)[C@@H]2CC[C@]1(O[C@@H]1O[C@H](CO)[C@@H](O)[C@H](O[C@@H]2O[C@H](CO)[C@@H](O)[C@H](O)[C@H]2O)[C@H]1O[C@@H]1O[C@H](CO)[C@@H](O)[C@H](O)[C@H]1O)C3` [Reb-O, rebaudioside O], the “enhancement of overall sweetness by hesperitin dihydrochalcone” value (“enhancement of overall sweetness” for short) in assay [1] is listed as “about 1 Brix”.

Turning to `C=C1C[C@@]23CC[C@H]4[C@@](C)(CCC[C@@]4(C)C(=O)O[C@@H]4O[C@H](CO)[C@@H](O)[C@H](O[C@@H]5O[C@H](CO)[C@@H](O)[C@H](O)[C@H]5O)[C@H]4O[C@@H]4O[C@H](CO)[C@@H](O)[C@H](O)[C@H]4O)[C@@H]2CC[C@]1(O[C@@H]1O[C@H](CO)[C@@H](O)[C@H](O[C@@H]2O[C@H](CO)[C@@H](O)[C@H](O)[C@H]2O)[C@H]1O[C@@H]1O[C@H](CO)[C@@H](O)[C@H](O)[C@H]1O)C3` [rebaudioside M], the figures for the “sweetness against sucrose solutions” value in [2] (setting [12]), in assay [3] (setting [12]) and in assay [6] were 6 % sucrose, 6 % sucrose and less than 6 % sucrose, respectively. Moreover, in [4] (both panelists), the “sweetness and mouthfeel compared with sample also containing Hesperetin dihydrochalcone-4′-beta-D-glucoside” value was “less sweet and less mouthfeel”. Also, the “sweetness in sucrose equivalents” value in assay [4] (one panelist) is listed as less than 7 % sucrose; in assay [4] (the other panelist), less than 8 % sucrose. For the same compound, the aftertaste of control result in assay [5] was “sweet lingering, licorice and bitter aftertaste observed in the control”. Moreover, the “enhancement of overall sweetness” value in [1] is given as “about 2.5 Brix”. In addition, the “sweetness and bitterness rank among Reb-J, Reb-N, Reb-O, Reb-M” value in assay [1] is reported as “sweetest”.

For `C=C1C[C@@]23CC[C@H]4[C@@](C)(CCC[C@@]4(C)C(=O)O[C@@H]4O[C@H](CO)[C@@H](O)[C@H](O)[C@H]4O[C@@H]4O[C@@H](C)[C@H](O)[C@@H](O)[C@H]4O)[C@@H]2CC[C@]1(O[C@@H]1O[C@H](CO)[C@@H](O)[C@H](O[C@@H]2O[C@H](CO)[C@@H](O)[C@H](O)[C@H]2O)[C@H]1O[C@@H]1O[C@H](CO)[C@@H](O)[C@H](O)[C@H]1O)C3` [Reb-J, rebaudioside J], in assay [1], the “enhancement of overall sweetness” value was “about 1 Brix”; the “sweetness and bitterness rank among Reb-J, Reb-N, Reb-O, Reb-M” value was “least sweet and most bitter”.

For `O=C(CCc1ccc(O)cc1)c1c(O)cc(O)cc1O` [phloretin, 3-(4-hydroxyphenyl)-1-(2,4,6-trihydroxyphenyl)propan-1-one], the “sweetness against sucrose solution” value in assay [3] (40 ppm phloretin in acidic water) is reported as less than 1.5 % sucrose.

As for `COc1ccc(CCC(=O)c2c(O)cc(O[C@@H]3O[C@H](CO)[C@@H](O)[C@H](O)[C@H]3O[C@@H]3O[C@@H](C)[C@H](O)[C@@H](O)[C@H]3O)cc2O)cc1O` [NHDC, 1-[4-[[(2S,3R,4S,5S,6R)-4,5-Dihydroxy-6-(hydroxymethyl)-3-[[(2S,3R,4R,5R,6S)-3,4,5-trihydroxy-6-methyl-2-tetrahydropyranyl]oxy]-2-tetrahydropyranyl]oxy]-2,6-dihydroxyphenyl]-3-(3-hydroxy-4-methoxyphenyl)propan-1-one], the “sweetness against sucrose solution” value in assay [2] (5 ppm NHDC in acidic water) is listed as less than 1.5 % sucrose.

In the case of `C[C@H](CC[C@@H](O[C@@H]1O[C@H](CO[C@H]2O[C@H](CO)[C@@H](O)[C@H](O)[C@H]2O)[C@@H](O)[C@H](O)[C@H]1O[C@@H]1O[C@H](CO)[C@@H](O)[C@H](O)[C@H]1O)C(C)(C)O)[C@H]1CC[C@@]2(C)[C@@H]3CC=C4[C@@H](CC[C@H](O[C@@H]5O[C@H](CO)[C@@H](O)[C@H](O)[C@H]5O)C4(C)C)[C@]3(C)[C@H](O)C[C@]12C` [1,6-α-isomer of Siamenoside I, mogro-3-O-[β-D-glucopyranoside]-24-O-{[β-D-glucopyranosyl-(1→2)]-[α-D-glucopyranosyl-(1→6)]-β-O-D-glucopyranoside}], in assay [7], the “sweetness in sucrose equivalents” value was “less than 7 % sucrose”. For the same compound, in assay [8], the “sweetness against sucrose solutions” value is listed as roughly 4 % sucrose.

Take `C=C1C[C@@]23CC[C@H]4[C@@](C)(CCC[C@@]4(C)C(=O)O[C@@H]4O[C@H](CO)[C@@H](O)[C@H](O[C@@H]5O[C@H](CO)[C@@H](O)[C@H](O)[C@H]5O)[C@H]4O[C@@H]4O[C@@H](C)[C@H](O)[C@@H](O)[C@H]4O)[C@@H]2CC[C@]1(O[C@@H]1O[C@H](CO)[C@@H](O)[C@H](O[C@@H]2O[C@H](CO)[C@@H](O)[C@H](O)[C@H]2O)[C@H]1O[C@@H]1O[C@H](CO)[C@@H](O)[C@H](O)[C@H]1O)C3` [Reb-N, rebaudioside N]: the “enhancement of overall sweetness” value in [1] was “about 1 Brix”.

As to `C[C@H](CC[C@@H](O[C@@H]1O[C@H](CO[C@@H]2O[C@H](CO)[C@@H](O)[C@H](O)[C@H]2O)[C@@H](O)[C@H](O)[C@H]1O[C@@H]1O[C@H](CO)[C@@H](O)[C@H](O)[C@H]1O)C(C)(C)O)[C@H]1CC[C@@]2(C)[C@@H]3CC=C4[C@@H](CC[C@H](O[C@@H]5O[C@H](CO)[C@@H](O)[C@H](O)[C@H]5O)C4(C)C)[C@]3(C)[C@H](O)C[C@]12C` [siamenoside I], the “sweetness in sucrose equivalents” value in assay [9] is roughly 6 % sucrose. Further, in [10], the “sweetness against sucrose solutions” value is given as less than 6 % sucrose.
